The test system of one data set is blood-brain barrier. Nature of the data set: Animal experiment of blood-brain barrier opening (FITC-Dextran in brain of SD rats). Format: in vivo. As to the method: Fluorescein-labeled dextran FITC-Dextran (CAS: 60842-46-8) with a molecular weight of 10,000 MW was purchased from […] (Shanghai) Chemical Industry Development Co., Ltd.; PBS solution and experimental animal SD rats were obtained from commercial sources. FITC-Dextran solution was prepared with PBS to obtain six concentration gradients (0.001, 0.01, 0.1, 1, 0.5, 10 μg/ml), and a FITC-Dextran concentration standard curve was prepared by using microplate reader (λex=490 nm, λem=520 nm); 10 mg/ml FITC-Dextran solution was separately prepared, Compound 5 was added to PBS solution to make 1 mg/ml solution, 1 ml of 10 mg/ml FITC-Dextran solution and 1 ml of 1 mg/ml Compound 5 PBS solution were taken to make an administration solution; 1 ml of 10 mg/ml FITC-Dextran solution and 1 ml of PBS solution taken to make a blank control solution; 6 SD rats were injected with 2 ml of the administration solution respectively in the tail vein, while another 6 SD rats were injected with 2 ml of the blank control solution in the tail vein; after 30 minutes, the brain tissues of all SD rats were taken out, homogenized and centrifuged at 10,000 rpm for 15 minutes, and the supernatants were taken for testing; and a microplate reader (λex=490 nm, λem=520 nm) was used for the fluorescence detection of the solutions to be tested. […]

In another data set the target is T1, A2A adenosine receptor (Homo sapiens, UniProt P29274).
T1 construct: purchased PerkinElmer Research Products (Boston, Mass.); host or cells: HEK-293 cells, stably transfected; membrane preparation
T1 sequence (P29274 whole entry): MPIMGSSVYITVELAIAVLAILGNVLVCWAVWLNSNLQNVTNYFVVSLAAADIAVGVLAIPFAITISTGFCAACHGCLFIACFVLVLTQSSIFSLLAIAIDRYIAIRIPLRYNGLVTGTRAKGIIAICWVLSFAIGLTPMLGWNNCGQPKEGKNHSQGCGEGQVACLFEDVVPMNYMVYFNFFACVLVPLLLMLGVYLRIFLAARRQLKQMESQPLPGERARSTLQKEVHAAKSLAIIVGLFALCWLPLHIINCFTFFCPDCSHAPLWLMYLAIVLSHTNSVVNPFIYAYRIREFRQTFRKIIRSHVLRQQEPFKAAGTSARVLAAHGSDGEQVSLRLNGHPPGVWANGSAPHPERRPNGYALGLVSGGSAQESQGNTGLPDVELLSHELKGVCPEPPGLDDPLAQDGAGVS
Nature of the data set: Radioligand binding test ([3H]CGS21680 displacement, hA2A HEK-293 cell membrane). The following applies: calculated from IC50 by Cheng and Prusoff equation; [3H]CGS21680 25 nM, Km 22 nM; 25° C., 90 minutes. As to the method:
[3H]CGS21680 (2-[p-(2-carboxyethyl)phenylethylamino]-5′-N-ethylformamidoadenosine, [carboxy-1-ethyl-3H(N)]; 250 μCi) was purchased from PerkinElmer Research Products (Boston, Mass.).
Cell membrane stably transfected with (human) A2A adenosine receptor was prepared in HEK-293 cells. The cell membrane was obtained from PerkinElmer Research Products (Boston, Mass.).
CGS21680 (2-[p-(2-carboxyethyl)phenylethylamino]-5′-N-ethylformamidoadenosine) was purchased from Selleck (Shanghai, CN).
The A2A adenosine receptors used were all expressed in the cell membrane. […] The specific binding percentage of [3H]CGS21680 was calculated according to the CPM value, % specific binding of [3H]CGS21680=(CPMsample−CPMLow Control)/(CPMHigh Control−CPMLow Control)*100, in which
High Control was 0.5% DMSO, Low Control was 100 μM CGS21680. The IC50 value was calculated based on the compound concentration and the specific binding percentage of [3H]CGS21680 by curve fitting.
The inhibition constant (Ki) value was calculated from the IC50 value according to the Cheng and Prusoff equation, Ki=IC50/(1+[S]/Km), in which [S] was the concentration of the radioligand (25 nM), and Km was the human A2AAR dissociation constant (22 nM) of [3H]CGS21680. The inhibition constant Ki values for Compounds 1 to 20 of the present invention binding to A2A adenosine receptor were shown in Table 1.

Data set [1] concerns the target human adenosine receptor A2A (Homo sapiens, UniProt P29274). Nature of the data set: Adenosine receptor A2A cAMP test (LANCE Ultra cAMP, hADORA2A-HEK293 cells). Format: cell-based. Particulars: for hA2AAR agonist function (in words): conclusion from cAMP test; for EC50: hADORA2A-HEK293 cells, 300 cells/well, stimulation of cyclic adenosine monophosphate. From the text: Experimental reagents and consumables: DMEM/F12, G418, Penicillin-Streptomycin, Versene Solution, HEPES, Hank's Buffered Saline Solution, PBS (pH 7.4, 1×, sterile), FBS, BSA Stabilizer 7.5%, Rolipram, NECA, were purchased from Gibico, Hyclone and Sigma, respectively. LANCE® Ultra cAMP kit (Eu-cAMP tracer, Ulight-anti-cAMP reagent, cAMP detection buffer) and hADORA2A-HEK293 cells were purchased from PerkinElmer Research Products (Boston, Mass.). All other reagents were of analytical grade and obtained from commercial sources. 384-well polypropylene microplate and 384-well white solid plate were purchased from Labcyte and Corning, respectively.
Cells stably expressing human adenosine receptor A2A (hADORA2A-HEK293 cells) were cultured in DMEM/F12 medium containing 10% FBS, 1× Penicillin-Streptomycin and 400 μg/ml G418 in a 37° C., 5% CO2 environment. Before the experiment, the cells were digested with Versene solution, and the cells were collected by centrifugation at 200 g at room temperature for 5 minutes, and finally resuspended with detection buffer (Hank's buffered saline solution, containing 5 mM HEPES, 0.1% BSA stabilizer and 10 μM Rolipram, pH 7.4). TECAN automated pipetting workstation was used to prepare a compound source plate by 3-fold diluting the compound in a 384-well polypropylene microplate with DMSO to form 11 concentration points, in which the 11 concentration points of the compound were 10 mM, 3.33 mM, 1.11 mM, 0.37 mM, 0.12 mM, 0.041 mM, 0.013 mM, 4.57×10^−3 mM, 1.52×10^−3 mM, 5×10^−4 mM and 1.7×10^−4 mM, respectively. Echo ultrasonic pipetting system (Labcyte) was used to transfer the test compound from the compound source plate to the detection plate, in which the volume of the compound transferred was 10 nl/well. The hADORA2A-HEK293 cell suspension was diluted with detection buffer to 30,000 cells/ml, and the cell suspension was transferred to the detection plate at a volume of 10 μl/well (300 cells/well). The detection plate was centrifuged at 150 g for 1 minute and pre-incubated at room temperature for 30 minutes. […] EnVison microplate reader (EnVision multimode plate reader, PerkinElmer) was used to test the level of cyclic adenosine monophosphate in the final solution (λex=320 nm, λem=665 nm & 615 nm). The EC50 (nM) value of the compound interacting with A2A adenosine receptor to stimulate the production of a level of cyclic adenosine monophosphate was calculated. The compound A2A receptor agonist titer was expressed as the EC50 (nM) value of the compound interacting with the A2A adenosine receptor to stimulate the production of a level of cyclic adenosine monophosphate.
A general note: In TR-FRET formats the signal depends on donor and acceptor labels being close together.

The values that follow come from patent US20220380402A1, “6-HYDRAZINOADENOSINE COMPOUNDS WITH A2A ADENOSINE RECEPTOR AGONIST ACTIVITY” (ACADEMY OF MILITARY MEDICAL SCIENCES, priority 2019, published 2022).

human adenosine receptor A2A, sequence (P29274 whole entry): as above

Usually melting point stands for the temperature, or range, at which the solid turns liquid. By Ki is commonly meant the dissociation constant of the complex between target and ligand, obtained from inhibition or displacement. Compound `OC[C@H]1O[C@@H](n2cnc3c(N/N=C/c4ccc(-c5ccc(Br)cc5)o4)ncnc32)[C@H](O)[C@@H]1O` [Compound 5, (2R,3R,4S,5R)-2-{6-{2-{(E)-[5-(4-bromophenyl)furan-2-yl]methylene}hydrazino}-9H-purin-9-yl}-5-(hydroxymethyl)tetrahydrofuran-3,4-diol] showed a melting point of 162 °C. The “Opening of the blood-brain barrier (in words)” value with blood-brain barrier (SD rats, FITC-Dextran co-administered by tail vein, 30 minutes) was “could open the blood-brain barrier”. For the same compound, the Ki on A2A adenosine receptor is 353 nM.

Usually EC50 stands for the concentration giving half of the maximal effect. `OC[C@H]1O[C@@H](n2cnc3c(N/N=C/c4ccc(OCc5ccc(F)cc5)cc4)ncnc32)[C@H](O)[C@@H]1O` [Compound 7, (2R,3R,4S,5R)-2-{6-{2-{(E)-4-[(4-fluorobenzyl)oxy]benzylidene}hydrazino}9H-purin-9-yl}-5-(hydroxymethyl)tetrahydrofuran-3,4-diol] displayed a melting point of 206 °C. Further, in data set [1], the “hA2AAR agonist function (in words)” value is “hA2AAR agonists” and it took 18.6 nM to reach a half-maximal effect (EC50). Besides, the “FITC-Dextran concentration in the brain of SD rats” value with blood-brain barrier (tail vein injection of 2 ml (10 mg/ml FITC-Dextran 10,000 MW + 1 mg/ml compound in PBS, 1:1), brain homogenate supernatant after 30 minutes, average of 6 rats, blank control 0.021) is 0.057 µg/mL. Besides, on A2A adenosine receptor, the Ki is 13.8 nM.

In turn, `OC[C@H]1O[C@@H](n2cnc3c(N/N=C/c4cncs4)ncnc32)[C@H](O)[C@@H]1O` [Compound 16, (2R,3S,4R,5R)-2-(hydroxymethyl)-5-{6-{2-[(E)-thiazol-5-yl-methylene]hydrazino}-9H-purin-9-yl}tetrahydrofuran-3,4-diol] came in with a melting point of 224 °C. Further, in data set [1], the “hA2AAR agonist function (in words)” value was “hA2AAR agonists” and the EC50 was determined as 43.5 nM. Besides, the inhibition constant (Ki) at A2A adenosine receptor was 15.8 nM.
